Measurements: patent US20240116910A1, “Heterocycles as WIP1 Inhibitors” (PMV Pharmaceuticals, Inc., priority 2022, published 2024)

Key:
[1] = target: recombinant His-tag Wip1(2-420) protein (amino acids #2-420) (Homo sapiens (Human), UniProt O15297); assay: Wip1(2-420) phosphatase enzyme FDP assay; format: biochemical; settings: fluorescein diphosphate (FDP) substrate, RT 2 hours, fluorescence Ex485/Em535; read-out: WIP1 (Truncated 2-420) FDP Assay: IC50
[2] = target: recombinant His-tag Wip1 full length protein (amino acids #1-605) (Homo sapiens (Human), UniProt O15297); assay: Wip1 full length phosphatase enzyme FDP assay; format: biochemical; settings: fluorescein diphosphate (FDP) substrate, RT 2 hours, fluorescence Ex485/Em535
recombinant His-tag Wip1 full length protein (amino acids #1-605), sequence (O15297 whole entry, the tested form may be a part): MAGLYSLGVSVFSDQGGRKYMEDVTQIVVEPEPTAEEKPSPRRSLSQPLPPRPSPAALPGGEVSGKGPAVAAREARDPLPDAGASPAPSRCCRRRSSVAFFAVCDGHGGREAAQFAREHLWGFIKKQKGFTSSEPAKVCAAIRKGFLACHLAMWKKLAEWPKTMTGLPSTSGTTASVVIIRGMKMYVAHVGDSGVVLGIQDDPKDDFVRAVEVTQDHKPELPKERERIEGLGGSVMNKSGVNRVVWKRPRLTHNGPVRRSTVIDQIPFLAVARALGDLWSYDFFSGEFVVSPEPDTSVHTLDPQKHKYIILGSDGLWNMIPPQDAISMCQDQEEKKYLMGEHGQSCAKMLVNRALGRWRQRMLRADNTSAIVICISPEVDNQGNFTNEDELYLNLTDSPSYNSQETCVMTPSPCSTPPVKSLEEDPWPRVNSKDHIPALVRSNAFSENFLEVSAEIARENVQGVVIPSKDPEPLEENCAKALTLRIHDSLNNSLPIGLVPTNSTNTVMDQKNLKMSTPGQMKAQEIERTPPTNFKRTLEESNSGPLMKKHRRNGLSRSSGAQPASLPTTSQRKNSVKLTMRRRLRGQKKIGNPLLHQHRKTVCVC
Description: The Human Wip1 (2-420, aa 2-420) or Wip1 full length (aa 1-605) DNA sequence was codon optimized and synthesized by Genscript for insect cell expression. The open reading frame of Wip1(2-420) with a N-terminal-His6 affinity tag followed by a TEV cleavage site was subcloned sites into the pFastBac1 expression vector. The recombinant bacmid DNA was transfected in Sf9 insect cells for baculovirus production. After 72 hours infection, the Sf9 cells were harvested by centrifugation and resuspended in lysis buffer containing 50 mM Tris/HCl, pH 8.0, 500 mM NaCl, 20% glycerol, Benzonase 0.5% CHAPS and Roche cOmplete™ EDTA free protease inhibitors. Cells were disrupted with microfluidizer and the debris was removed by centrifugation at 185,000 g for 1 hour. The supernatant was subjected to HisTrap FF for affinity purification. Proteins were eluted with a linear gradient of 0-500 mM imidazole in HisTrap buffer containing 50 mM Tris/HCl, pH 8.0, 500 mM NaCl and 20% glycerol, 0.05% CHAPS. The eluted protein was dialyzed against dialysis buffer (20 mM MES, 100 mM NaCl, 20% glycerol, 0.5 mM TCEP, 0.05% CHAPS) followed purification via HiTrap SP HP column. The protein was eluted with a gradient of 100 mM-2 M NaCl in dialysis buffer. His6-[…] was finally concentrated and loaded onto a size-exclusion column (NiLoad 16/600 Superdex 200 pg, GE Healthcare) pre-equilibrated with 50 mM MOPS (pH 7.5), 200 mM NaCl, 20% glycerol, 1 mM TCEP, 0.05% CHAPS and 0.1 mM EGTA. The peak fractions containing purified Nis6-Wip1(2-420) were pooled and concentrated to 1.0 mg/mL and flash frozen at −80° C.
Wip1 Length and Wip1(2-420) Phosphatase Enzyme FDP Assays.
Test compounds (252 mM stock in DMSO) were diluted 3 folds in series in DMSO and 1.2 μl per well were added into 384-well polypropylene black plates (Nunc). Twelve μl per well of Assay Buffer (100 mM NaCl, 50 mM MOPS, pH 7.5, 0.8 mM CHAPS, 0.1 mM EGTA, 30 mM MgCl2, 0.3 mM TCEP, 0.2 mg/mL BSA) was added followed by […] per well of 50.4 nM recombinant His-tag Wip1 full length protein (amino acids #1-605) or recombinant His-tag Wip1(2-420) protein (amino acids #2-420) in Assay Buffer and the plate was incubated at RT (22° C.) for 5 min. Ten mM of fluorescein diphosphate (FDP) in DMSO was diluted to […] in Assay Buffer and […] per well was added to the plate and incubated at RT (22° C.) for 2 hours. […] per well of 64.1 mM EDTA in water were added to stop the enzyme reaction. The plate was centrifuged at 1,200 rpm (Eppendorf 5810R Plate centrifuge) for 1 minute and fluorescence intensity (Ex485/Em535) was measured on Perkin Elmer Victor Reader. EC50 values were calculated using either Prism (GraphPad) or ActivityBase software (IDBS), The IC50 results are provided in Table M.

recombinant His-tag Wip1(2-420) protein (amino acids #2-420), sequence (O15297 2-420): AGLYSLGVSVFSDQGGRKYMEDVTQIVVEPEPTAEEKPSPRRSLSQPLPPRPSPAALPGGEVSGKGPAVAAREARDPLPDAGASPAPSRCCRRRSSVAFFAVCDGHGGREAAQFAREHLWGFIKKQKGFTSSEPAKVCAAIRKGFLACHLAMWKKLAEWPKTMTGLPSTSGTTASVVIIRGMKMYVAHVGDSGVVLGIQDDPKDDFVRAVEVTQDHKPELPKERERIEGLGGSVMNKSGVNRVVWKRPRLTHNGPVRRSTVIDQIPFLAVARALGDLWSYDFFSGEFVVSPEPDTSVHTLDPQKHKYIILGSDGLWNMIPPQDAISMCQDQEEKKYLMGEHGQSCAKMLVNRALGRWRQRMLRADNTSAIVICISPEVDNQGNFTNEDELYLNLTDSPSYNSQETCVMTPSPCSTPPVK

Row | IC50 [1] [nM] | IC50 [2] [nM] | Compound
1 | 4 | 7 | COc1cc(NC(=O)[C@H](CC2CCCC2)NC(=O)c2ccc([C@H](C)Nc3cc(Cl)cnc3C)s2)ccc1F [Compound 69, (2S)-2-({5-[(1S)-1-[(5-chloro-2-methylpyridin-3-yl)amino]ethyl]thiophen-2-yl}formamido)-3-cyclopentyl-N-(4-fluoro-3-methoxyphenyl)propanamide]
2 | 10 | 16 | Cc1ncc(Cl)cc1N[C@@H](C)c1ccc(C(=O)N[C@@H](CC2CCCC2)C(=O)NC23CC(C#N)(C2)C3)s1 [Compound 31, (2S)-2-({5-[(1S)-1-[(5-chloro-2-methylpyridin-3-yl)amino]ethyl]thiophen-2-yl}formamido)-N-{3-cyanobicyclo[1.1.1]pentan-1-yl}-3-cyclopentylpropanamide]
3 | 6 | 8 | C[C@H](Nc1cc(Cl)cnc1C1CC1)c1ccc(C(=O)N[C@@H](CC2CCCC2)C(=O)NC2CC2)s1 [Compound 70, (2S)-2-({5-[(1S)-1-[(5-chloro-2-cyclopropylpyridin-3-yl)amino]ethyl]thiophen-2-yl}formamido)-3-cyclopentyl-N-cyclopropylpropanamide]
4 | 8 | 10 | COc1ncc(Cl)cc1N[C@H](C)c1ccc(C(=O)N[C@@H](CC2CCCC2)C(=O)N[C@@H]2CC2(F)F)s1 [Compound 36, (2S)-2-({5-[(1R)-1-[(5-chloro-2-methoxypyridin-3-yl)amino]ethyl]thiophen-2-yl}formamido)-3-cyclopentyl-N-[(1R)-2,2-difluorocyclopropyl]propanamide]
5 | 159 | 39 | CC(Nc1cccc(Cl)c1)c1ncc(C(=O)N[C@@H](CC2CCCC2)C(=O)NC2CC2)s1 (stereo partly drawn) [Compound 123, (2S)-2-[(2-{1-[(3-chlorophenyl)amino]ethyl}-1,3-thiazol-5-yl)formamido]-3-cyclopentyl-N-cyclopropylpropanamide]
6 | 5 | 7 | COCCOc1ccc(NC(=O)[C@H](CC2CCCC2)NC(=O)c2ccc([C@H](C)Nc3cc(Cl)cnc3C)s2)cc1 [Compound 59, (2S)-2-({5-[(1S)-1-[(5-chloro-2-methylpyridin-3-yl)amino]ethyl]thiophen-2-yl}formamido)-3-cyclopentyl-N-[4-(2-methoxyethoxy)phenyl]propanamide]
7 | 6 | 14 | CN(Cc1ncc(C(=O)N[C@@H](CC2CCCCC2)C(=O)Nc2ccncc2)s1)c1cncc(Cl)c1 [Compound 287, 2-[[(5-chloro-3-pyridyl)-methyl-amino]methyl]-N-[(1S)-1-(cyclohexylmethyl)-2-oxo-2-(4-pyridylamino)ethyl]thiazole-5-carboxamide]
8 | 12 | 15 | Cc1ncc(Cl)cc1N[C@@H](C)c1ccc(C(=O)N[C@@H](CC2CCCC2)C(=O)NC2(C(F)(F)F)CC2)s1 [Compound 42, (2S)-2-({5-[(1S)-1-[(5-chloro-2-methylpyridin-3-yl)amino]ethyl]thiophen-2-yl}formamido)-3-cyclopentyl-N-[1-(trifluoromethyl)cyclopropyl]propanamide]
9 | 5 | 8 | Cc1ncc(Cl)cc1N[C@@H](C)c1ccc(C(=O)N[C@@H](CC2CCCC2)C(=O)Nc2cnn(C3CCOCC3)c2)s1 [Compound 163, (2S)-2-({5-[(1S)-1-[(5-chloro-2-methylpyridin-3-yl)amino]ethyl]thiophen-2-yl}formamido)-3-cyclopentyl-N-[1-(oxan-4-yl)-1H-pyrazol-4-yl]propanamide]
10 | 67 | 67 | CN(Cc1ncc(C(=O)N[C@@H](CC2CCCCC2)C(=O)N[C@H]2CC[C@H](N(C)C)CC2)s1)c1cncc(Cl)c1 [Compound 303, 2-[[(5-chloro-3-pyridyl)-methyl-amino]methyl]-N-[(1S)-1-(cyclohexylmethyl)-2-[[4-(dimethylamino)cyclohexyl]amino]-2-oxo-ethyl]thiazole-5-carboxamide]
11 | 5 | 8 | Cc1ncc(Cl)cc1N[C@@H](C)c1ccc(C(=O)N[C@@H](CC2CCCC2)C(=O)NC2CC(F)(F)C2)s1 [Compound 25, (2S)-2-({5-[(1S)-1-[(5-chloro-2-methylpyridin-3-yl)amino]ethyl]thiophen-2-yl}formamido)-3-cyclopentyl-N-(3,3-difluorocyclobutyl)propanamide]
12 | 6 | 7 | CCc1ncc(Cl)cc1N[C@@H](C)c1ccc(C(=O)N[C@@H](CC2CCCC2)C(=O)NC2CC2)s1 [Compound 78, (2S)-2-({5-[(1S)-1-[(5-chloro-2-ethylpyridin-3-yl)amino]ethyl]thiophen-2-yl}formamido)-3-cyclopentyl-N-cyclopropylpropanamide]
13 | 7 | 6 | Cc1ncc(Cl)cc1N[C@@H](C)c1ccc(C(=O)N[C@@H](CC2CCCC2)C(=O)NC2CC2(F)F)s1 (stereo partly drawn) [Compound 14, (2S)-2-({5-[(1S)-1-[(5-chloro-2-methylpyridin-3-yl)amino]ethyl]thiophen-2-yl}formamido)-3-cyclopentyl-N-(2,2-difluorocyclopropyl)propanamide]
14 | 12 | 16 | C[C@H](c1ccc(C(=O)N[C@@H](CC2CCCC2)C(=O)NC2CC2)s1)N1CCc2cc(F)c(Cl)cc21 [Compound 57, (2S)-2-({5-[(1R)-1-(6-chloro-5-fluoro-2,3-dihydro-1H-indol-1-yl)ethyl]thiophen-2-yl}formamido)-3-cyclopentyl-N-cyclopropylpropanamide]
15 | 19 | 30 | Cc1ncc(Cl)cc1N[C@@H](C)c1ncc(C(=O)N[C@@H](CC2CCCC2)C(=O)NC23CC(C2)C3)s1 [Compound 278, (2S)-N-{bicyclo[1.1.1]pentan-1-yl}-2-({2-[(1S)-1-[(5-chloro-2-methylpyridin-3-yl)amino]ethyl]-1,3-thiazol-5-yl}formamido)-3-cyclopentylpropanamide]
16 | 31 | 11 | CN(Cc1ccc(C(=O)N[C@@H](CC2CCCCC2)C(=O)NC2CCC(N(C)C)CC2)s1)c1cncc(Cl)c1 (stereo partly drawn) [Compound 298, 5-[[(5-chloro-3-pyridyl)-methyl-amino]methyl]-N-[(1S)-1-(cyclohexylmethyl)-2-[[4-(dimethylamino)cyclohexyl]amino]-2-oxo-ethyl]thiophene-2-carboxamide]
17 | 6 | 9 | C[C@@H](Nc1cccc(Cl)c1)c1ccc(C(=O)N[C@@H](CC2CCCC2)C(=O)NC2CC2)s1 [Compound 1, 5-[1-(3-chloroanilino)ethyl]-N-[(1S)-1-(cyclopentylmethyl)-2-(cyclopropylamino)-2-oxo-ethyl]thiophene-2-carboxamide]

Row | Compound | IC50 [1] [nM] | IC50 [2] [nM]
18 | O=C(N[C@@H](CC1CCCCC1)C(=O)NC1CC1)c1cnc(CN2CCc3ccc(C(F)(F)F)cc32)s1 [Compound 306, N-[(1S)-1-(cyclohexylmethyl)-2-(cyclopropylamino)-2-oxo-ethyl]-2-[[6-(trifluoromethyl)indolin-1-yl]methyl]thiazole-5-carboxamide] | 83 | 38
19 | Cc1ncc(Cl)cc1NC(C)c1ccc(C(=O)N[C@@H](CC2CCCC2)C(=O)NC2CC2)s1 (stereo partly drawn) [Compound 5, 5-[1-[(5-chloro-2-methyl-3-pyridyl)amino]ethyl]-N-[(1S)-1-(cyclopentylmethyl)-2-(cyclopropylamino)-2-oxo-ethyl]thiophene-2-carboxamide] | 13 | 24
20 | O=C(N[C@@H](CC1CCCCC1)C(=O)NC1CCOCC1)c1cnc(CNc2ccnc(C(F)(F)F)c2)s1 [Compound 305, N-[(1S)-1-(cyclohexylmethyl)-2-oxo-2-(tetrahydropyran-4-ylamino)ethyl]-2-[[[2-(trifluoromethyl)-4-pyridyl]amino]methyl]thiazole-5-carboxamide] | 90 | 31
